Experiments:
neuroblastoma cell lines = assay: IC50 in Table 3, cell line not stated; type: cell-based; details: Homo sapiens
Excerpt: In addition numerous analogs related to AOH1160 were screened in numerous neuroblastoma cell lines for anti-cancer activity (Table 2). AOH1160 was screened for anti-cancer activity in additional cancer cell lines besides neuroblastoma (Table 3).

SK-N-AS = assay: Cell growth, CellTitor-Glo assay, 72 h; type: cell-based; details: Homo sapiens
Description: (§1) The human NB cell lines, SK-N-DZ, SK-N-BE(2)c, SK-N-AS, and LAN-5 obtained from the American Type Culture Collection (Rockville, MD), were cultured in DMEM with 10% fetal bovine serum (FBS), 100 units/ml penicillin, and 100 μg/ml streptomycin in the presence of 5% CO2 at 37° C. Human PBMCs from a healthy donor were purchased from Sanguine BioSciences (Valencia, CA) and grown in RPMI1640 with 10% FBS, 100 units/ml penicillin, 100 μg/ml streptomycin, and 10 ng/ml IL-2 in the presence of 5% CO2 at 37° C. Human embryonic progenitor cell line 7SM0032 was acquired from Millipore (Billerica, MA) and grown in the hEPM-1 Media Kit purchased from the same company. The plasmid pCBASce expresses the rare cutting I-SceI meganuclease. The U20S-derived cell lines, DR-GFP and EJ5-GFP, each contain a stably transfected reporter gene for DSB repair mediated by HR and end joining (EJ), respectively. These cell lines were cultured in DMEM medium with 10% FBS at 37° C. in the presence of 5% CO2.
(§2) To measure the effect of the compounds on cell growth, cells were seeded at 3×10^4/ml into a 96-well plate. Once attached, cells were treated with various concentrations of AOH1160 for 72 h. Cell growth was measured by the CellTitor-Glo assay (Promega, Madison, WI) according to the manufacturer's instructions. To measure apoptosis, cells were seeded at 1×10^5/ml onto a chamber slide. Once attached, cells were treated with the 500 nM AOH1160 for 24 h. Cells were fixed and analyzed by a TUNEL assay using the TMR red in situ cell death detection kit (Roche Diagnostics, Indianapolis, IN).

PBMC = assay: Cell growth, CellTitor-Glo assay, 72 h; type: cell-based, human
Description: as §1, §2

SK-N-BE(2)c = assay: Cell growth, CellTitor-Glo assay, 72 h; type: cell-based; details: Homo sapiens
Description: as §1, §2

SK-N-DZ = assay: Cell growth, CellTitor-Glo assay, 72 h; type: cell-based; details: Homo sapiens
Description: as §1, §2

NB cell lines = assay: Cell viability assay on NB cell lines; type: cell-based, human; details: Homo sapiens; multiple NB cell lines; read-out: IC50 range over NB cell lines
Description: as §2
To identify small molecule compounds that target the PCNA and FEN1 interface, we started with known crystal structures of the PCNA/FEN1 complex that are available from the RCSB protein database. To improve the likelihood of identifying novel small molecules that specifically target caPCNA, we focused our virtual screen on the binding pocket in PCNA delineated by residues L126 and Y133 and screened databases consisting of more than 6.8 million chemical structures available at the AMRI. A set of 57 compounds identified by the virtual screen was acquired and further tested in a cell viability assay. A compound (AOH39) was selected for further development due to its anti-cancer activity and selectivity.

7SM0032 = assay: Cell growth, CellTitor-Glo assay, 72 h; type: cell-based, human; details: human neural crest stem cells (7SM0032)
Description: as §1, §2

| Compound | IC50 (neuroblastoma cell lines) | IC50 (SK-N-AS) | also measured |
| --- | --- | --- | --- |
| O=C(CNC(=O)c1nccc2ccccc12)Nc1cccc(Oc2ccncc2)c1 [#1166] | 34 µM | > 30 µM |  |
| O=C(CNC(=O)c1cccc2ccccc12)Nc1cccc(Oc2ccncc2)c1 [#1161] | 21.6 µM | 21.6 µM |  |
| O=C(CNC(=O)c1cccc2ccccc12)Nc1ccc(Cl)cc1Oc1ccccc1 [PCNA4] |  | 0.185 µM | IC50 (PBMC; Homo sapiens, PBMC (non-malignant)): > 20 µM; IC50 (SK-N-BE(2)c): 0.5 µM; IC50 (SK-N-DZ): 0.447 µM |
| O=C(CNC(=O)c1nccc2ccccc12)Nc1ccccc1Oc1ccncc1 [#1167] | 4.2 µM |  |  |
| O=C(CNC(=O)c1cncc2ccccc12)Nc1ccc(Oc2ccncc2)cc1 [AOH1180] | > 30 µM | > 30 µM |  |
| O=C(CNC(=O)c1cncc2ccccc12)Nc1ccccc1Oc1ccccc1 [#1175] | > 30 µM | > 30 µM |  |
| O=C(CNC(=O)c1cccc2ccccc12)Nc1ccccc1Cc1ccccc1 [AOH39, N-(2-((2-benzylphenyl)amino)-2-oxoethyl)-1-naphthamide, reference compound] |  |  | IC50 (NB cell lines): 1.3 to 2.8 µM; IC50 (PBMC; human peripheral blood mononuclear cells (PBMC)): 15.4 µM; IC50 (7SM0032): ~100 µM |
| O=C(CNC(=O)c1cncc2ccccc12)Nc1cccc(Oc2ccncc2)c1 [#1176] |  | > 30 µM |  |
| O=C(CNC(=O)c1nccc2ccccc12)Nc1ccc(Oc2ccncc2)cc1 [AOH1179] | > 30 µM | > 30 µM |  |
| O=C(CNC(=O)c1cccc2ccccc12)Nc1ccc(Oc2ccncc2)cc1 [#1178] | 1.1 µM | 1.1 µM |  |
| O=C(CNC(=O)c1cccc2ccccc12)Nc1ccccc1Oc1ccncc1 [#1162] | > 50 µM | > 50 µM |  |
| O=C(CNC(=O)c1cncc2ccccc12)Nc1ccccc1Oc1ccncc1 [#1177] | > 30 µM |  |  |
| O=C(CNC(=O)c1nccc2ccccc12)Nc1ccccc1Oc1ccccc1 [#1165] | 35 µM | 35 µM |  |

Source: patent US12054447B2, “PCNA inhibitors” (City of Hope, priority 2015, dated 2024)
